Patent US11459330B2, “Substituted bicyclic heterocyclic compounds as PRMT5 inhibitors” (LUPIN LIMITED, priority 2017, dated 2022)

Legend:
PRMT5:MEP50 = PRMT5:MEP50 (Homo sapiens, UniProt O14744); test: PRMT5 biochemical HTRF assay (Biochemical Assay Protocol 1 / 2); conditions: biotinylated H4R3 substrate, 1 μM SAM, protocol 1 or 2 not given, activity range 300 pM to 950 pM, read-out: IC50 (PRMT5 inhibition), activity range
Description: Biochemical Assay Protocol 1
(§1) Inhibitory effect of compounds on PRMT5 was assessed using HTRF detection technology in biochemical assay. Biotinylated H4R3 (residues 1-21) was used as a substrate. Compounds were pre-incubated with 15-25 ng PRMT5:MEP50 per well of a 384-well plate for 30 min at room temperature in the assay buffer containing 20 mM Bicine, pH 7.6, 25 mM NaCl, 2 mM DTT, 0.01% Chicken albumin and 0.01% Tween-20. Reaction was initiated by adding 1 μM of SAM and 50 nM biotinylated H4R3. Total assay volume was 15 μL. Reaction was continued for 120 min at room temperature. Then detection solution containing Streptavidin-Eu cryptate, anti-rabbit IgG-XL-665, Histone H4R3 Dimethyl Symmetric (H4R3me2s) Polyclonal Antibody, all prepared in HTRF detection buffer was added and further incubated for 30 min at room temperature. HTRF signal was recorded in PHERAStar microplate reader. Ratio of signal obtained at 665 nm and 620 nm was used to compute the percent inhibition of compound as follows % Inhibition=100−((Test Ratio−Negative control Ratio)/(Positive control Ratio−Negative control Ratio)*100) where Positive control=PRMT5+SAM+H4R3 Negative control=PRMT5+H4R3 Biochemical Assay Protocol 2
as §1, with “2.5” for “15-25”, “4 h” for “120 min”, “control=PRMT5+H4R3” for “control=PRMT5+H4R3 Biochemical Assay Protocol 2”

PANC-1 cells = test: Anti-cancer assay (Panc-1), cell viability CellTiterGlo; assay type: cell-based; conditions: Homo sapiens, PANC-1, 168 h, 7 days, activity range, lower bound in pM, upper bound in nM
Description: Anticancer Activity Assay
Z-138 cells were seeded at a density of 2000-3000 cells per well in culture media (IMDM+10% FBS). PANC-1 (ATCC, CRL-1469™) and MIA PaCa-2 (ATCC, CRL-1420™) cells were seeded at a density of 200-300 cells per well in culture media (DMEM+10% FBS). Cells were seeded in opaque, flat bottomed tissue culture grade 96-well plates and Z-138 cells (suspension) were seeded and treated on the same day with various concentrations of test compounds. PANC-1 and MIA PaCa-2 cells, being adherent, were kept for overnight settlement at standard cell culture conditions (37° C., 5% CO2). On the following day, cells were treated with various concentrations of test compounds. Cells were treated with test compounds for a period of 96 h, 7 days and 10 days, for Z-138 cells, PANC-1 cells and MIA PaCa-2 cells, respectively. Cell viability was assessed using CellTiterGlo™ (Promega, USA) as per manufacturer's instructions. Relative Light Units (RLU) were read in Synergy™ 2 reader (Biotek, USA). The assay measures cellular ATP as an indicator of cell viability. RLU is proportional to the number of viable cells in the respective well.
% inhibition of cell viability was calculated relative to the vehicle control samples containing media with 0.1% DMSO alone as per the formula below. (Avg. of Untreated Control−Avg. of Test)×100 Avg. of Untreated Control
The IC50 values of individual compounds were calculated with Non Linear Regression Analysis using Graph Pad Prism (Graph Pad software, Inc, USA).
Anti-Cancer Assay (Panc-1)

Z-138 xenograft = test: In vivo efficacy, Z-138 xenograft mouse model; design: species or system female NOD.CB17-Prkdc<scid>/J mice; conditions: mice, oral twice a day; for % of tumor growth inhibition: 1 mg/kg dose, after 38 days
Description: In Vivo Efficacy Experiments Tumor xenograft for mantle cell lymphoma was established by injection of cells into the right flank of female NOD.CB17-Prkdc/J mice with an age between 7-11 weeks purchased from The Jackson Laboratory, USA. All animal study proposals were reviewed and approved by the Institutional Animal Ethics Committee (IAEC) prior to initiation of experimentation. Z-138 Xenograft For Z-138 xenograft mouse model, Z-138 cells (ATCC® CRL-3001™) were grown in IMDM medium supplemented with 10% FBS. Cells were incubated under standard conditions at 37° C. and 5% CO2. For generating tumors, Z-138 cells in IMDM medium were mixed with Matrigel (Corning® Matrigel® Basement Membrane Matrix) in a ratio of 1:1. 10×10^6 cells) in a volume of 200 μL were injected subcutaneously in each mouse to establish tumors. Mice were randomized into treatment groups of 8-10 mice, once tumors reached an average volume between 100 to 120 mm^3. Treatment was initiated on day of randomization and continued until end of the study. The Vehicle and test compound treatment groups were administered respective treatments orally, using gavage tubing, at an application volume of 10 mL/kg per mouse twice a day. Mice were housed in individually ventilated cages (IVC) at room temperature of 22+3° C., humidity 50+20% and 12/12 h light/dark cycle. All the experimental activities were carried-out inside the biosafety cabinets to ensure sterility.
Tumor size was measured with Digimatic Vernier caliper (Mitutoyo, Japan) when the tumors became palpable. Tumor volume (T. V.) is calculated by using the formula: Tumor volume (mm3)=(L×W2)/2 Where, L: Length of tumor, W: Width of tumor in millimeter Percent tumor growth inhibition (% TGI) is calculated using the formula: % TGI=[1−(Tf−Ti)/(Cf−Ci)]×100 Where, Tf and Ti, are the final and initial tumor volumes (test compound), and Cf and Ci are the final and initial mean tumor volumes (vehicle group), respectively. Percent tumor regression is calculated as: % TR:(Ti−Tf)/(Ti)×100 Where, Tf and Ti, are the final and initial tumor volumes, respectively.

Sequence of PRMT5:MEP50 (O14744 whole entry): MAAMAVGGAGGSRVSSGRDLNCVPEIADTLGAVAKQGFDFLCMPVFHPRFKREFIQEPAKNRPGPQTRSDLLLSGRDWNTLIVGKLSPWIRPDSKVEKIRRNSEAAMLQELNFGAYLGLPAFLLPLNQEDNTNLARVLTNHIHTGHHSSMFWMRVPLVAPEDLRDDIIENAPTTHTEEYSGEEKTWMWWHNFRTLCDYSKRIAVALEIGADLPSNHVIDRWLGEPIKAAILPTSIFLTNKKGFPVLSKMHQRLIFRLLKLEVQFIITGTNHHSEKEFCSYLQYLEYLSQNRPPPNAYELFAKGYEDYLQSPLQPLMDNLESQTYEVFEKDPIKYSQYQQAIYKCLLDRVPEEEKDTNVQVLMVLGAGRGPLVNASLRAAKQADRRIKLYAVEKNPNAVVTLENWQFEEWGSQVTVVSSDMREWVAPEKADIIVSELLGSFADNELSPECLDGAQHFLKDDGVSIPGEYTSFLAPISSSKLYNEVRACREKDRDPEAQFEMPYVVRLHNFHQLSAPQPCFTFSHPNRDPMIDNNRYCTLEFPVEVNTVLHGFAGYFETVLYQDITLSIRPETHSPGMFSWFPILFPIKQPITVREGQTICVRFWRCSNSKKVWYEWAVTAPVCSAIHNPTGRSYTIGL
Sequence of PRMT5:MEP50 (Q9BQA1 whole entry partner): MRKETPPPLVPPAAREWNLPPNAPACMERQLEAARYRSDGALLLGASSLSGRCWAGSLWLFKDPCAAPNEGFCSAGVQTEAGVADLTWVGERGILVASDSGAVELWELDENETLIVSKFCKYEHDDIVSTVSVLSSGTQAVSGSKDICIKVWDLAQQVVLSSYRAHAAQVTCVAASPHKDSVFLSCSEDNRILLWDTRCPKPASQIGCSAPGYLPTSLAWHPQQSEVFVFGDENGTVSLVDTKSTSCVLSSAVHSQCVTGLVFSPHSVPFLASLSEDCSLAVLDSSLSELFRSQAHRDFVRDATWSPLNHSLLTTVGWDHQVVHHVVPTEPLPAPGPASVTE

| SMILES | IC50 (PRMT5:MEP50) | IC50 (PANC-1 cells) | % of tumor growth inhibition (Z-138 xenograft) | tumor growth inhibition (Z-138 xenograft; 5 mg/kg dose) | tumor regression (Z-138 xenograft; 5 mg/kg dose) |
| --- | --- | --- | --- | --- | --- |
| CC(Cc1cc(F)c2cc(Cl)c(N)nc2c1)C1=C[C@@H](n2ccc3c(N)ncnc32)[C@H](O)[C@@H]1O (single isomer, unassigned) [Compound-33b] | 0.3 to 0.95 nM | 300 to 20000 pM | 100% | – | – |
| Nc1nc2cc(CC[C@@]34C[C@@H]3[C@@H](n3ccc5c(N)ncnc53)[C@H](O)[C@@H]4O)cc(F)c2cc1Cl [Compound-48, (1R,2R,3S,4R,5S)-1-(2-(2-Amino-3-chloro-5-fluoroquinolin-7-yl)ethyl)-4-(4-amino-7H-pyrrolo[2,3-d]pyrimidin-7-yl)bicyclo[3.1.0]hexane-2,3-diol] | 0.3 to 0.95 nM | 300 to 20000 pM | – | 100% | 63% |
| Nc1nc2cc(CCC3=C[C@@H](n4ccc5c(N)ncnc54)[C@H](O)[C@@H]3O)cc(F)c2cc1Cl [Compound-24, (1S,2R,5R)-3-(2-(2-amino-3-chloro-5-fluoroquinolin-7-yl)ethyl)-5-(4-amino-7H-pyrrolo[2,3-d]pyrimidin-7-yl)cyclopent-3-ene-1,2-diol] | 0.3 to 0.95 nM | 300 to 20000 pM | 100% | – | – |
| Cc1ncnc2c1ccn2[C@@H]1C=C(CCc2cc(F)c3cc(Cl)c(N)nc3c2)[C@@H](O)[C@H]1O [Compound-13, (1S,2R,5R)-3-(2-(2-amino-3-chloro-5-fluoroquinolin-7-yl)ethyl)-5-(4-methyl-7H-pyrrolo[2,3-d]pyrimidin-7-yl)cyclopent-3-ene-1,2-diol] | 0.3 to 0.95 nM | 300 to 20000 pM | 100% | – | – |
